Where two headings read alike, the source gives them in different places.
System: Angiotensin II (AII) vasopressor response
Experiment: AII Challenge: antagonism of angiotensin II vasopressor response in conscious spontaneously hypertensive rats
Format: in vivo, rat (male okamoto-Aoki SHR)
Conditions: for inhibition in vivo at 3 mg/kg: Rattus norvegicus, read-out: Inhibition; for inhibition in vivo at 3 mg/kg / Average Change: SHR n=2; for Change: single SHR
In short: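 Conscious male SHR (16–20 weeks, ~330 g) cannulated under local procaine, blood pressure recorded via transducer. Angiotensin II (human) 0.05 and 0.1 ug/kg i.v. given before and after test compound dosed i.v., i.p. or orally; response measured as rise in systolic pressure (mmHg).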

[1] = 3 mg/kg I.V., AII 0.05 mcg/kg IV, 30 min post dose
[2] = 3 mg/kg I.V., AII 0.05 mcg/kg IV, 60 min post dose
[3] = 3 mg/kg I.V., AII 0.05 mcg/kg IV, 90 min post dose
[4] = 3 mg/kg I.V., AII 0.1 mcg/kg IV, 30 min post dose
[5] = 3 mg/kg I.V., AII 0.1 mcg/kg IV, 60 min post dose
[6] = 3 mg/kg I.V., AII 0.1 mcg/kg IV, 90 min post dose
[7] = 3 mg/kg I.V., AII 0.1 mcg/kg IV, 120 min post dose
[8] = 3 mg/kg P.O., AII 0.1 mcg/kg IV, 180 min post dose

CCCCc1nc2ccc([C@@H]3[C@@H]4C(=O)OC[C@@H]4ON3Cc3ccccc3)cc2c(=O)n1Cc1ccc(-c2ccccc2-c2nnn[nH]2)cc1 (relative stereo) [Example 56]
inhibition in vivo at 3 mg/kg (iv, 0.5 h, 3 mg/kg I.V., AII 0.05 mcg/kg IV, 30 min post dose): 100%
inhibition in vivo at 3 mg/kg (iv, 0.5 h, 3 mg/kg I.V., AII 0.1 mcg/kg IV, 30 min post dose): 100%
inhibition in vivo at 3 mg/kg (iv, 1 h, 3 mg/kg I.V., AII 0.05 mcg/kg IV, 60 min post dose): 100%
inhibition in vivo at 3 mg/kg (iv, 1 h, 3 mg/kg I.V., AII 0.1 mcg/kg IV, 60 min post dose): 89%
inhibition in vivo at 3 mg/kg (iv, 2 h, 3 mg/kg I.V., AII 0.05 mcg/kg IV, 120 min post dose): 77%
inhibition in vivo at 3 mg/kg (iv, 2 h, 3 mg/kg I.V., AII 0.1 mcg/kg IV, 120 min post dose): 78%
inhibition in vivo at 3 mg/kg (iv, 3 h, 3 mg/kg I.V., AII 0.05 mcg/kg IV, 180 min post dose): 77%
inhibition in vivo at 3 mg/kg (iv, 3 h, 3 mg/kg I.V., AII 0.1 mcg/kg IV, 180 min post dose): 76%
inhibition in vivo at 3 mg/kg (iv, 4 h, 3 mg/kg I.V., AII 0.05 mcg/kg IV, 240 min post dose): 72%
inhibition in vivo at 3 mg/kg (iv, 4 h, 3 mg/kg I.V., AII 0.1 mcg/kg IV, 240 min post dose): 56%
inhibition in vivo at 3 mg/kg (iv, 5 h, 3 mg/kg I.V., AII 0.05 mcg/kg IV, 300 min post dose): 65%
inhibition in vivo at 3 mg/kg (iv, 5 h, 3 mg/kg I.V., AII 0.1 mcg/kg IV, 300 min post dose): 67%
inhibition in vivo at 3 mg/kg (iv, […], 3 mg/kg I.V., AII 0.05 mcg/kg IV, 90 min post dose): 100%
inhibition in vivo at 3 mg/kg (iv, […], 3 mg/kg I.V., AII 0.1 mcg/kg IV, 90 min post dose): 89%
inhibition in vivo at 3 mg/kg (po, 0.5 h, 3 mg/kg P.O., AII 0.05 mcg/kg IV, 30 min post dose): 31%
inhibition in vivo at 3 mg/kg (po, 0.5 h, 3 mg/kg P.O., AII 0.1 mcg/kg IV, 30 min post dose): 11%
inhibition in vivo at 3 mg/kg (po, 1 h, 3 mg/kg P.O., AII 0.05 mcg/kg IV, 60 min post dose): 18%
inhibition in vivo at 3 mg/kg (po, 1 h, 3 mg/kg P.O., AII 0.1 mcg/kg IV, 60 min post dose): 19%
inhibition in vivo at 3 mg/kg (po, 2 h, 3 mg/kg P.O., AII 0.05 mcg/kg IV, 120 min post dose): 36%
inhibition in vivo at 3 mg/kg (po, 2 h, 3 mg/kg P.O., AII 0.1 mcg/kg IV, 120 min post dose): 27%
inhibition in vivo at 3 mg/kg (po, 3 h, 3 mg/kg P.O., AII 0.05 mcg/kg IV, 180 min post dose): -9%
inhibition in vivo at 3 mg/kg (po, 3 h, 3 mg/kg P.O., AII 0.1 mcg/kg IV, 180 min post dose): 3%
inhibition in vivo at 3 mg/kg (po, […], 3 mg/kg P.O., AII 0.05 mcg/kg IV, 90 min post dose): 36%
inhibition in vivo at 3 mg/kg (po, […], 3 mg/kg P.O., AII 0.1 mcg/kg IV, 90 min post dose): 19%
Average Change [1]: 0 mmHg
Average Change [2]: 0 mmHg
Average Change [3]: 0 mmHg
Average Change (3 mg/kg I.V., AII 0.05 mcg/kg IV, 120 min post dose): 7.5 mmHg
Average Change (3 mg/kg I.V., AII 0.05 mcg/kg IV, 180 min post dose): 7.5 mmHg
Average Change (3 mg/kg I.V., AII 0.05 mcg/kg IV, 240 min post dose): 9 mmHg
Average Change (3 mg/kg I.V., AII 0.05 mcg/kg IV, 300 min post dose): 11.5 mmHg
Average Change [4]: 0 mmHg
Average Change [5]: 5 mmHg
Average Change [6]: 5 mmHg
Average Change [7]: 10 mmHg
Average Change (3 mg/kg I.V., AII 0.1 mcg/kg IV, 180 min post dose): 11 mmHg
Average Change (3 mg/kg I.V., AII 0.1 mcg/kg IV, 240 min post dose): 20 mmHg
Average Change (3 mg/kg I.V., AII 0.1 mcg/kg IV, 300 min post dose): 15 mmHg
Average Change (3 mg/kg P.O., AII 0.05 mcg/kg IV, 30 min post dose): 19 mmHg
Average Change (3 mg/kg P.O., AII 0.05 mcg/kg IV, 60 min post dose): 22.5 mmHg
Average Change (3 mg/kg P.O., AII 0.05 mcg/kg IV, 90 min post dose): 17.5 mmHg
Average Change (3 mg/kg P.O., AII 0.05 mcg/kg IV, 120 min post dose): 17.5 mmHg
Average Change (3 mg/kg P.O., AII 0.05 mcg/kg IV, 180 min post dose): 30 mmHg
Average Change (3 mg/kg P.O., AII 0.1 mcg/kg IV, 30 min post dose): 27.5 mmHg
Average Change (3 mg/kg P.O., AII 0.1 mcg/kg IV, 60 min post dose): 25 mmHg
Average Change (3 mg/kg P.O., AII 0.1 mcg/kg IV, 90 min post dose): 25 mmHg
Average Change (3 mg/kg P.O., AII 0.1 mcg/kg IV, 120 min post dose): 22.5 mmHg
Average Change [8]: 30 mmHg
Change [1]: 0 mmHg
Change [2]: 0 mmHg
Change [3]: 0 mmHg
Change [4]: 0 mmHg
Change [5]: 5 mmHg
Change [6]: 5 mmHg
Change [7]: 10 mmHg
Change [8]: 30 mmHg

— US5294611A, “Angiotensin II receptor blocking 2,3,6 substituted quinazolinones” (American Cyanamid Company, priority 1993, dated 1994)
